The target of one test is MEK1 (Homo sapiens, UniProt Q02750). The experiment in a line: Target kinase 10-point inhibition assay, MEK1. The test is classed as biochemical. The note with it: replicates. The text has this: The average percent kinase inhibition from replicate data was ranked low to high, converted to a compatible identifier format, then input into Coral Human Kinome Visualization software for presentation analysis. […] Scaling of evolutionary distance for PI kinases is only relative and is based on literature analysis[62],[63]. Average percent kinome inhibition values from replicate data are supplied in Source Data file. […] Corrected data was normalized to vehicle treated control values, and dose response percent kinase activity was analyzed by non-linear regression for determination of IC50 values.
Sequence of MEK1 (Q02750 whole entry): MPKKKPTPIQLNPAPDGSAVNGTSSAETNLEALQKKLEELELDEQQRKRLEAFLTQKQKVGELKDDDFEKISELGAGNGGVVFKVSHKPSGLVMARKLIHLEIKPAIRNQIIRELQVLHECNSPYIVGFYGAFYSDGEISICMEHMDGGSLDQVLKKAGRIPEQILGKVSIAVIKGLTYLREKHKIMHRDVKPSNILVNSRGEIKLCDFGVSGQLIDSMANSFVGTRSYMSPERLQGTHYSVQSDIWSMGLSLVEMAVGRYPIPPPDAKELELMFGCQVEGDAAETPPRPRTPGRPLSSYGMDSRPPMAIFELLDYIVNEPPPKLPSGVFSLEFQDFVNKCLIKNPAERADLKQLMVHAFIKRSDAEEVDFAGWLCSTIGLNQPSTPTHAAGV

Test [1] has as its system MPL^W515L mouse model of myelofibrosis. Kind of test: MPL^W515L MF mouse model: immune cell numbers in spleen. The test is classed as in vivo. The note with it: MPL^W515L mice, oral 400 mg kg^−1 daily, 28 d. The protocol: The human megakaryoblastic cell line, SET-2 (ATCC), was maintained in RPMI 1640 supplemented with 20% FBS and incubated for 16 h at 10^6 cells mL^−1 with LP-182 or vehicle (DMSO; dimethyl sulfoxide), then washed in ice-cold PBS, and collected for flow cytometry analysis. Single-cell suspensions of mouse spleen were prepared from MPL^W515L MF mice (below) in RPMI 1640 supplemented with 5% FCS. Red blood cells were lysed by ammonium chloride-mediated red cell lysis (RCL) buffer and passed through a nylon mesh, and then cells were counted. For intracellular phospho-protein staining, SET-2 or spleen cells were fixed and then permeabilized using BD Phospho-flow fixation buffer and Perm-Buffer III (BD biosciences) according to the manufacturer’s protocol. Intracellular phospho-protein staining was performed using fluorochrome-conjugated antibodies, pAKT (pS473)-Alexa Fluor 647 (MB89-61) or pERK1/2 (pT202/pY204)-Alexa Fluor 647 (20 A). […] Flow cytometry was performed on a FACS Fortessa (Becton, Dickinson and Co.) using FACSDiVa software, and data analyzed using FlowJo software (Tree Star). […]
Generation of the MPL^W515L mutant MF mouse model was similar to previously described methods. […] Development of MF was evaluated by spleen volumes using MRI beginning ~14 d following bone marrow transplantation (BMT) as outlined below, continuing weekly until end of the study. […]

Where “and” joins values, the source holds several entries; their conditions need not be identical. Equal values may be shown once.

Regarding `O=C(NOCCOCCOCCOCCC(=O)N1CCN(c2cnc3ccc(-c4cnc(Cl)c(NS(=O)(=O)c5ccc(F)cc5)c4)cc3n2)CC1)c1ccc(F)c(F)c1Nc1ccc(I)cc1F` [LP-182, N-(2-(2-(2-(3-(4-(7-(6-chloro-5-((4-fluorophenyl)sulfonamido)pyridin-3-yl)quinoxalin-2-yl)piperazin-1-yl)-3-oxopropoxy)ethoxy)ethoxy)ethoxy)-3,4-difluoro-2-((2-fluoro-4-iodophenyl)amino)benzamide], the activity at 0.000495 µM was 91% on MEK1 (MEK1, 0.495 nM) and 90% on MEK1 (MEK1, concentration 0.495 nM). The “Kinase Activity (%)” value on MEK1 (MEK1, 0.495 nM, 0.000495 µM) was 94% and 100% (2×) and 98% (2×) and 87%; at MEK1 (MEK1, 1.52 nM, 0.00152 µM), 94% (2×) and 102% (2×); on MEK1 (MEK1, 4.57 nM, 0.00457 µM) it was 77% and 86% and 84% and 81%; on MEK1 (MEK1, 41.2 nM, 0.0412 µM), 47% and 49% and 69% and 72% and 79% and 86% and 76% and 73%; at MEK1 (MEK1, 123 nM, 0.123 µM), 26% and 22% and 46% and 50% and 53% and 57% and 54% and 49%; at MEK1 (MEK1, 1110 nM, 1.11 µM), 0% and 3% (3×) and 8% (2×) and 9% (2×) and 5% and 12%. Besides, the “Kinase Activity (%)” value on MEK1 (MEK1, 3330 nM, 3.33 µM) was -1% and 1% (2×) and 2% (2×) and 3% (3×) and 4% and 0%; on MEK1 (MEK1, 10000 nM, 10 µM), 0% and -2% (2×) and 8% and 9% and 4% and 2% and -1% and 3% (2×); on MEK1 (MEK1, concentration 0.495 nM, 0.000495 µM), 100% (2×) and 98% (2×); on MEK1 (MEK1, concentration 1.52 nM, 0.00152 µM), 94% (2×) and 102% (2×); at MEK1 (MEK1, concentration 1110 nM, 1.11 µM), 9% (2×) and 3% (3×) and 8% (2×); on MEK1 (MEK1, concentration 3330 nM, 3.33 µM), 2% (2×) and 1% (2×) and 3% (3×). Further, the “Kinase Activity (%)” value on MEK1 (MEK1, concentration 10000 nM, 10 µM) is 3% (2×) and -2% (2×). The activity at 0.00152 µM on MEK1 (MEK1, 1.52 nM) was found to be 89%; on MEK1 (MEK1, concentration 1.52 nM), 99%. Further, the activity at 0.00457 µM at MEK1 (MEK1, 4.57 nM) was 92%; at MEK1 (MEK1, concentration 4.57 nM) it was 95%. This compound also gave an activity at 0.0412 µM on MEK1 (MEK1, concentration 41.2 nM) of 65%. Further, on MEK1 (MEK1, concentration 123 nM), the activity at 0.123 µM was 43%. The compound also yielded an activity at […] at MEK1 (MEK1, concentration 370 nM) of 15%. Also, the “cell numbers of neutrophils (Neu) and megakaryocytes (MK) in the spleen” value in test [1] is on record as “decreased cell numbers”.
